Results taken from the CheMixHub drug solubility set.

Experiment: xn = mol fraction of the nth substance listed, in the solute-free solvent

CN1CCC(N(Cc2cccs2)c2ccccc2)CC1 + CCO + O
solubility (g/100 g solution)
Conditions | 278.15 K | 283.15 K | 288.15 K | 293.15 K | 298.15 K | 303.15 K | 308.15 K | 313.15 K | 318.15 K | 323.15 K
x2 = 0.04165 | 0.102 | 0.109 | 0.117 | 0.128 | 0.141 | 0.156 | 0.171 | 0.187 | 0.206 | 0.228
x2 = 0.08908 | 0.202 | 0.215 | 0.23 | 0.25 | 0.274 | 0.301 | 0.33 | 0.358 | 0.393 | 0.431
x2 = 0.1436 | 0.339 | 0.36 | 0.385 | 0.418 | 0.457 | 0.501 | 0.546 | 0.592 | 0.646 | 0.707
x2 = 0.2068 | 0.502 | 0.533 | 0.571 | 0.62 | 0.679 | 0.743 | 0.807 | 0.874 | 0.953 | 1.04
x2 = 0.2812 | 0.667 | 0.713 | 0.764 | 0.826 | 0.904 | 0.984 | 1.07 | 1.16 | 1.26 | 1.39
x2 = 0.3698 | 0.851 | 0.906 | 0.981 | 1.07 | 1.18 | 1.29 | 1.4 | 1.51 | 1.65 | 1.8
x2 = 0.4772 | 1.02 | 1.08 | 1.18 | 1.29 | 1.42 | 1.56 | 1.69 | 1.84 | 2.01 | 2.19
x2 = 0.6101 | 1.16 | 1.24 | 1.36 | 1.5 | 1.65 | 1.81 | 1.97 | 2.15 | 2.35 | 2.56
x2 = 0.7788 | 1.22 | 1.32 | 1.47 | 1.64 | 1.81 | 2 | 2.19 | 2.4 | 2.63 | 2.87
